The structures appear in SMILES notation.

Chain of E3 ubiquitin-protein ligase CBL-B (Q13191 whole entry): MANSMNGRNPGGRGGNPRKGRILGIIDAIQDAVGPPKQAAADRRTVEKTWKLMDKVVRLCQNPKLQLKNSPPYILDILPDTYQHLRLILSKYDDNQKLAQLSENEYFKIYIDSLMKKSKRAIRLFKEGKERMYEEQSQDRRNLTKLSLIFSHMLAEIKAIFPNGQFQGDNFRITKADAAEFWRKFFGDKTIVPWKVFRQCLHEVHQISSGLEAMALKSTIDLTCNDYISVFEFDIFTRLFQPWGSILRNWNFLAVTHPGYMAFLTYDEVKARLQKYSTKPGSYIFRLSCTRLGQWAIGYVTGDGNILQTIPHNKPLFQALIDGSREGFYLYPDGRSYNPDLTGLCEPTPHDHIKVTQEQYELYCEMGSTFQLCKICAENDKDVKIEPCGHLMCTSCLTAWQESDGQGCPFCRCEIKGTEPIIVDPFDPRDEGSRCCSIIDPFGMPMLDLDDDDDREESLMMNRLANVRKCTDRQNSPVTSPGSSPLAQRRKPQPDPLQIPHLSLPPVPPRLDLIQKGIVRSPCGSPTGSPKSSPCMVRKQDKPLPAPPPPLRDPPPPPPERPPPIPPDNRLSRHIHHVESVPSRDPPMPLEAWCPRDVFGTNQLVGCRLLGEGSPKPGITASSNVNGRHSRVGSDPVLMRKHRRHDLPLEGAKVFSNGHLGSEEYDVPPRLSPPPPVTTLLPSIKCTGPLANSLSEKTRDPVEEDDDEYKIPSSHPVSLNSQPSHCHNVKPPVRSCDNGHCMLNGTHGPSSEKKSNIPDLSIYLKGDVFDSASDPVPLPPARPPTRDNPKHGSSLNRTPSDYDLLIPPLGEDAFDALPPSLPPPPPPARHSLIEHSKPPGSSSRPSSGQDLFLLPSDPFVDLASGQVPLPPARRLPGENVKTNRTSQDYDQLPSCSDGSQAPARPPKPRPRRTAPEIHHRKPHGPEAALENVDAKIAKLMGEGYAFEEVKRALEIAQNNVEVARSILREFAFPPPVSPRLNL

This test has as its target E3 ubiquitin-protein ligase CBL-B (Homo sapiens, UniProt Q13191). Description: Inhibition of biotin-tagged Cbl-b (unknown origin) assessed as reduction in LCK ubiquitination using His-LCK as substrate preincubated for 60 mins followed by substrate addition in presence of ATP, MgCl2 and measured after 90 mins by HTRF assay. For orientation: TR-FRET usually uses a lanthanide donor and a delayed reading to cut background.
The IC50 is the concentration needed to halve the response being measured. `Cn1cnnc1C(c1cccc(N2Cc3c(cc(CNC4(C)CCC4)cc3C(F)(F)F)C2=O)c1)[C@H]1C[C@H](CC#N)C1` (stereo partly specified): the IC50 stood at 3 nM.
Next, `CCOc1cc([C@]2(c3nncn3C)C[C@@H](C)C2)cc(N2Cc3c(cc(CNC4(C)CCC4)cc3C(F)(F)F)C2=O)n1`: 4 nM; `CO[C@H]1C[C@](c2cccc(N3Cc4c(cc(CNC5CC6CC6C5)cc4C(F)(F)F)C3=O)c2)(c2nncn2C)C1` (stereo partly specified): 4 nM.
To `C[C@H](NC1(C)CCC1)c1cc(Cl)c2c(c1)C(=O)N(c1cccc([C@]3(c4nncn4C)C[C@H](F)C3)c1)C2` belongs 4 nM; to `Cn1cnnc1[C@]1(c2cccc(N3Cc4c(cc(CNC5(C)CCC5)cc4C(F)(F)F)C3=O)c2)C[C@H](Cl)C1`, 4 nM.
Next, `C[C@H](NC1(C)CCC1)c1cc2c(c(C(F)(F)F)c1)CN(c1cccc([C@@H](c3nncn3C)C3COC3)c1)C2=O`: 4 nM.

For the origin of these results see ChEMBL document CHEMBL5360605, “Novel Lactams as CBL-B Inhibitors for Treating Cancer” (ACS Med Chem Lett, 2023).
